Experimental findings from patent US7999132B2, “Anthranilic acid derivative or salt thereof” (Toyama Chemical Co., Ltd., priority 2004, dated 2011) are described below.

For one assay, the system named is DBA/1J mice. In words: Type II Collagen-induced Arthritis in Mice. The format is in vivo. As to conditions: 30 mg/kg orally once a day from the 21st day to the 35th day; X-ray of the four limbs on the 36th day; male DBA/1J mice. The procedure:
Type II Collagen-induced Arthritis in Mice
Eight-week old male DBA/1J mice were used (Charles River Laboratories Japan Inc.). 4 mg/mL bovine type II collagen (Collagen Gijutsu Kenshukai) dissolved in 0.01 mol/L of acetic acid aqueous solution and an equal amount of Freund's complete adjuvant (Chondorex) containing 1 mg/mL of killed tuberculosis bacillus were added to prepare an emulsion, and 0.1 mL thereof was intradermally injected at the base of tail. Similar treatment was conducted on the 21st day to cause arthritis. The test compound was suspended in 0.5% methylcellulose aqueous solution, and 30 mg/kg was orally administered once a day from the 21st day to the 35th day. In the control group, 0.5% methylcellulose aqueous solution was administered in the same manner. The severity of arthritis was estimated by scoring at zero point for an animal without change; one point for an animal with swelling at the one or two finger joint or light swelling only at the carpal or tarsal joint; two points for an animal with severe swelling at the carpal or tarsal joint or with swelling at three or more finger joints; three points for an animal with severe swelling along the whole foreleg or hindleg and thus counting 12 points at the maximum for the four limbs as arthritis score. […] The inhibitory rate was determined by the following expression. […]
For `O=C(Nc1cc(CCc2ccccc2)ccc1C(=O)O)c1ccccc1` [Example 25, 2-(benzamido)-4-phenethylbenzoic acid], the “inhibitory action on bone destruction (bone destruction score)” value was “exhibited inhibitory action”.

The assay is the same for the next values; noted with them: 30 mg/kg orally once a day from the 21st day to the 35th day; male DBA/1J mice.
Regarding `O=C(Nc1cc(CCc2ccccc2)ccc1C(=O)O)c1ccccc1` [Example 25, 2-(benzamido)-4-phenethylbenzoic acid], the “inhibitory action on arthritis (arthritis score)” value is recorded as “exhibited inhibitory action”.

The subject of another assay is MMP-13. In words: MMP-13 Production Inhibition Test. The format is cell-based, human. The note with it: Homo sapiens; 30 μmol/L; SW1353 cells stimulated with IL-1β 10 ng/mL; MMP-13 in culture supernatant by ELISA 16 hours after stimulation; read-out: Inhibition rate (%) at 30 μmol/L. The procedure:
MMP-13 Production Inhibition Test
6.8×10^3 human cartilage derived cell line SW1353 cells were suspended in 100 μL of Dulbecco modified Eagle's medium supplemented with 10% fetal calf serum, plated on 96-well plates and cultured for 3 days. After the culture medium was changed to Dulbecco modified Eagle's medium containing 0.2% lactalbumin hydrolysate and the cells were cultured for 6 hours, […] were added and then IL-1β was added to obtain the final concentration of 10 ng/mL 1 hour later. 16 hours after the stimulation, supernatant was collected and the amount of MMP-13 in the culture supernatant was determined with an ELISA kit (Amersham). The inhibition rate was calculated from the amount of MMP-13 in the presence of a test compound assuming that the amount of MMP-13 was 100% in the absence of the test compound.
As for `O=C(Nc1cc(CCc2ccccc2)ccc1C(=O)O)c1ccc(F)c(F)c1` [Example 433, 2-(3,4-Difluorobenzamido)-4-phenethylbenzoic acid], the inhibition at 30 µM is 98%. For the compound `O=C(Nc1cc(CCc2ccccc2)ccc1C(=O)O)c1cncc(-n2cccc2)c1` [Example 276, 4-Phenethyl-2-(5-(1H-pyrrol-1-yl)pyridine-3-carboxamido)benzoic acid], the inhibition at 30 µM was 86%. For the compound `O=C(Nc1cc(-c2ccccc2)ccc1C(=O)O)c1cccs1` [Example 301, 4-Phenyl-2-(thiophene-2-carboxamido)benzoic acid], the inhibition at 30 µM is 80%.

`O=C(Nc1cc(-c2ccccc2)ccc1C(=O)O)c1cccc(-c2ccccc2)c1` [Example 512, 2-(Biphenyl-3-carboxamido)-4-phenylbenzoic acid]: the inhibition at 30 µM amounted to 99%. Still for that read-out and setting: in the case of `Cc1cccc(Oc2ccc(C(=O)O)c(NC(=O)c3ccccc3)c2)c1C` [Example 541, 2-(Benzamido)-4-(2,3-dimethylphenoxy)benzoic acid] it was 97%; in that of `O=C(Nc1cc(Oc2ccccc2)ccc1C(=O)O)c1ccc2occc2c1` [Example 96, 2-(Benzofuran-5-carboxamido)-4-phenoxybenzoic acid], 96%; in that of `Cc1cccc(C(=O)Nc2cc(Oc3ccccc3)ccc2C(=O)O)c1` [Example 325, 2-(3-Methylbenzamido)-4-phenoxybenzoic acid], 91%. Regarding `O=C(Nc1cc(-c2cccc(Cl)c2)ccc1C(=O)O)c1ccccc1` [Example 222, 2-(benzamido)-4-(3-chlorophenyl)benzoic acid], the inhibition at 30 µM worked out at 98%.

As to `O=C(Nc1cc(Oc2ccccc2)ccc1C(=O)O)c1ccc(Cl)c(Cl)c1` [Example 442, 2-(3,4-Dichlorobenzamido)-4-phenoxybenzoic acid], the inhibition at 30 µM is 99%. For `O=C(Nc1cc(-c2ccc3c(c2)OCCO3)ccc1C(=O)O)c1ccccc1` [Example 15, 2-(Benzamido)-4-(2,3-dihydrobenzo[1,4]dioxin-6-yl)benzoic acid], the inhibition at 30 µM was determined as 88%.

As to `O=C(Nc1cc(-c2ccccc2)ccc1C(=O)O)c1ccc(-n2cccc2)nc1` [Example 509, 4-Phenyl-2-(6-(1H-pyrrol-1-yl)pyridine-3-carboxamido) benzoic acid], the inhibition at 30 µM was found to be 77%. On to `O=C(Nc1cc(CCc2ccccc2)ccc1C(=O)O)c1ccccc1` [Example 25, 2-(benzamido)-4-phenethylbenzoic acid], for which the inhibition at 30 µM is 86%. Turning to `O=C(Nc1cc(CCCCc2ccccc2)ccc1C(=O)O)c1ccccc1` [Example 33, 2-(benzamido)-4-(4-phenylbutyl)benzoic acid], the inhibition at 30 µM is 97%.

Regarding `COc1ccc(-c2ccc(C(=O)O)c(NC(=O)c3ccccc3)c2)cc1Cl` [Example 423, 2-(Benzamido)-4-(3-chloro-4-methoxyphenyl)benzoic acid], the inhibition at 30 µM worked out at 98%. Turning to `O=C(Nc1cc(-c2c(F)cccc2Cl)ccc1C(=O)O)c1ccccc1` [Example 251, 2-(benzamido)-4-(2-chloro-6-fluorophenyl)benzoic acid], the inhibition at 30 µM was determined as 83%. In the case of `O=C(Nc1cc(Oc2ccccc2)ccc1C(=O)O)c1cccc(-c2ccccc2)c1` [Example 503, 2-(Biphenyl-3-carboxamido)-4-phenoxybenzoic acid], the inhibition at 30 µM is 99%.
